Test results: the supplement of paper PMC10307832

Columns and labels:
Assay in all cases: relative viability (nuclei count vs DMSO), 5 days (fraction); higher = more cells survive
[1] = compound: C[C@H]([C@@H](C(=O)N)NC(=O)[C@@H]1CSSC[C@@H](C(=O)N[C@H](C(=O)N[C@@H](C(=O)N[C@H](C(=O)N1)CCCCN)CC2=CNC3=CC=CC=C32)CC4=CC=C(C=C4)O)NC(=O)[C@@H](CC5=CC=CC=C5)N)O [CAP-232]
Method in brief: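 Viability is treated-well nuclei as a fraction of vehicle-well nuclei, reported as the median across plates. Before counting, lung cancer cell lines were kept overnight at 37 °C in 1536-well plates, pinned with five √10-spaced library-drug doses on vehicle-anchored plates, and left 5 days without medium change, then fixed, permeabilised and Hoechst-stained in one step, imaged at 4× and counted by MetaXpress. A plate passed only if control CV was below 25% and at least one doubling occurred.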

[2] = compound: C[C@H]([C@@H](C(=O)N)NC(=O)[C@@H]1CSSC[C@@H](C(=O)N[C@H](C(=O)N[C@@H](C(=O)N[C@H](C(=O)N1)CCCCN)CC2=CNC3=CC=CC=C32)CC4=CC=C(C=C4)O)NC(=O)[C@@H](CC5=CC=CC=C5)N)O [CAP-232] + C[C@]1(O)C[C@@H](c2nc(-c3ccc4ccc(-c5ccccc5)nc4c3)c3c(N)nccn32)C1 [Linsitinib] (partner 1 µM)
Method in brief: (§1)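 For relative viability, nuclei counts in treated wells were divided by those in vehicle wells. Lung cancer cell lines had been pin-tool dosed in 1536-well plates the day after seeding and cultured for 5 days, then fixed and stained in one step (final 0.05% Triton X-100, 1% formaldehyde, 1 ug/ml Hoechst) and imaged at 4×. Doses were one drug alone or a fixed anchor-drug dose plus five library-drug doses (not always all listed) in √10 steps, and values are duplicate-plate medians.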

[3] = compound: C[C@H]([C@@H](C(=O)N)NC(=O)[C@@H]1CSSC[C@@H](C(=O)N[C@H](C(=O)N[C@@H](C(=O)N[C@H](C(=O)N1)CCCCN)CC2=CNC3=CC=CC=C32)CC4=CC=C(C=C4)O)NC(=O)[C@@H](CC5=CC=CC=C5)N)O [CAP-232] + C[C@@H](Oc1cc(-c2cnn(C3CCNCC3)c2)cnc1N)c1c(Cl)ccc(F)c1Cl [Crizotinib] (partner 1 µM)
Method in brief: as §1

[4] = compound: C[C@H]([C@@H](C(=O)N)NC(=O)[C@@H]1CSSC[C@@H](C(=O)N[C@H](C(=O)N[C@@H](C(=O)N[C@H](C(=O)N1)CCCCN)CC2=CNC3=CC=CC=C32)CC4=CC=C(C=C4)O)NC(=O)[C@@H](CC5=CC=CC=C5)N)O [CAP-232] + COc1cc2c(Oc3ccc(NC(=O)C4(C(=O)Nc5ccc(F)cc5)CC4)cc3F)ccnc2cc1OCCCN1CCOCC1 [Foretinib] (partner 0.25 µM)
Method in brief: as §1

[5] = compound: C[C@H]([C@@H](C(=O)N)NC(=O)[C@@H]1CSSC[C@@H](C(=O)N[C@H](C(=O)N[C@@H](C(=O)N[C@H](C(=O)N1)CCCCN)CC2=CNC3=CC=CC=C32)CC4=CC=C(C=C4)O)NC(=O)[C@@H](CC5=CC=CC=C5)N)O [CAP-232] + N=C(N)NC(=N)NCCc1ccccc1 [Phenformin] (partner 250 µM)
Method in brief: as §1

| Cell Line | relative viability ([1]; 0.4 µM) | relative viability ([1]; 1.265 µM) | relative viability ([1]; 4 µM) | relative viability ([1]; 12.65 µM) | relative viability ([2]; first compound 0.4 µM) | relative viability ([2]; first compound 1.265 µM) | relative viability ([2]; first compound 4 µM) | relative viability ([2]; first compound 12.65 µM) | relative viability ([3]; first compound 0.4 µM) | relative viability ([3]; first compound 1.265 µM) | relative viability ([3]; first compound 4 µM) | relative viability ([3]; first compound 12.65 µM) | relative viability ([4]; first compound 0.4 µM) | relative viability ([4]; first compound 1.265 µM) | relative viability ([4]; first compound 4 µM) | relative viability ([4]; first compound 12.65 µM) | relative viability ([5]; first compound 0.4 µM) | relative viability ([5]; first compound 1.265 µM) | relative viability ([5]; first compound 4 µM) | relative viability ([5]; first compound 12.65 µM) |
| --- | --- | --- | --- | --- | --- | --- | --- | --- | --- | --- | --- | --- | --- | --- | --- | --- | --- | --- | --- | --- |
| NCI-H1437 | 0.996 | 1.01 | 1.03 | 0.895 | 1.04 | 1.03 | 1.17 | 0.664 | 1.11 | 0.927 | 1.05 | 0.81 | 1.26 | 1.27 | 1.34 | 1.2 | 0.297 | 0.307 | 0.327 | 0.254 |
| NCI-H1734 | 0.97 | 0.981 | 1.05 | 0.936 | 0.848 | 0.917 | 0.951 | 0.766 | 0.674 | 0.577 | 0.758 | 0.65 | 0.883 | 0.863 | 0.971 | 0.697 | 0.369 | 0.321 | 0.387 | 0.264 |
| LK-2 | 1.08 | 0.957 | 1.1 | 0.976 | 0.463 | 0.836 | 0.517 | 0.389 | 0.216 | 0.251 | 0.181 | 0.199 | 1.4 | 1.22 | 1.54 | 1.19 | 0.47 | 0.302 | 0.389 | 0.415 |
| HCC-15 | 1.15 | 1.01 | 1.14 | 0.874 | 0.853 | 0.894 | 0.912 | 0.805 | 0.807 | 0.816 | 0.924 | 0.825 | 1.08 | 1.07 | 1.09 | 0.652 | 0.477 | 0.465 | 0.481 | 0.236 |
| HCC-366 | 0.988 | 0.964 | 1.04 | 1.09 | 0.745 | 0.628 | 0.824 | 0.537 | 0.486 | 0.543 | 0.623 | 0.448 | 0.914 | 0.948 | 0.891 | 0.898 | 0.6 | 0.588 | 0.66 | 0.631 |
| NCI-H650 | 1.03 | 0.979 | 1.02 | 0.91 | 1.12 | 0.808 | 0.872 | 0.846 | 0.7 | 0.767 | 0.795 | 0.494 | 1.01 | 1 | 0.969 | 0.926 | 0.443 | 0.416 | 0.472 | 0.413 |
| NCI-H2347 | 1.08 | 1.04 | 1.04 | 0.948 | 0.989 | 0.967 | 1.04 | 1.01 | 0.794 | 0.753 | 0.0086 | 0.544 | 0.804 | 0.524 | 1.11 | 1.05 | 0.281 | 0.305 | 0.427 | 0.296 |
